The values that follow come from patent US20160355530A1, “HEPATITIS C INHIBITORS AND USES THEREOF” (AbbVie Inc., priority 2010, published 2016).

The test system of assay [1] is chimeric replicon with 2a-J6CF-derived NS5B. Description: microbe, parasite or virus in culture. The class given is cell-based, HCV genotype 2a. The settings on record: Hepatitis C virus, read-out: 2a chimera 5% FBS EC50.
In assay [2] the test system is HCV 1a-H77 subgenomic replicon. In words: microbe, parasite or virus in culture. Type of assay: cell-based, HCV genotype 1a. The settings on record: Hepatitis C virus, stable replicon.
Assay [3] deals with HCV 1b-BB7 subgenomic replicon. In words: microbe, parasite or virus in culture. The class given is cell-based, HCV genotype 1b. The settings on record: Hepatitis C virus, stable replicon. (Replicon systems follow genome replication, usually without infectious particles.)
Assay [4] has as its target T1, HCV NS5B polymerase 1b BK strain (Hepatitis C virus genotype 1b, UniProt P26663).
T1 construct: six-histidine tag; made in house; host or cells: E. coli
In words: HCV NS5B polymerase enzymatic inhibition assay, strain 1b BK. Type of assay: biochemical. The settings on record: enzyme, strain 1b BK; read-out: HCV Polymerase Strain 1b BK IC50. In short, it runs like this: (§1)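 E. coli-expressed NS5B (residues 1-570, His-tagged) transcribed a 2.1 kb HCV 1b negative-strand 3′-end RNA template (5 nM) with 20 μM CTP, 20 μM ATP and 0.284 μM [3H]UTP for 3 h at 30° C. Spermine-precipitated RNA was filter-captured and counted by scintillation; IC50 from nonlinear regression.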

Assay [5] relates to chimeric replicon with genotype 4a NS5B. In words: microbe, parasite or virus in culture. The class given is cell-based, HCV genotype 4a. The settings on record: Hepatitis C virus, read-out: 4a chimera 5% FBS EC50.
For assay [6], the system named is chimeric replicon with genotype 3a NS5B. Description: microbe, parasite or virus in culture. Type of assay: cell-based, HCV genotype 3a. The settings on record: Hepatitis C virus, read-out: 3a chimera 5% FBS EC50.
For assay [7], the target named is T2, HCV NS5B polymerase 1a-H77-C316Y (Hepatitis C virus genotype 1a, UniProt P27958, C2736Y).
T2 construct: six-histidine tag; made in house; host or cells: E. coli
Description: biochemical. The arrangement: species or system HCV genotype 1a. In short, it runs like this:
as §1

Assay [8] addresses T3, HCV NS5B polymerase 1a-H77 (Hepatitis C virus genotype 1a, UniProt P27958).
T3 construct: six-histidine tag; made in house; host or cells: E. coli
Description: biochemical. The settings on record: enzyme, strain 1a H77; read-out: HCV Polymerase Strain 1a H77 IC50. Set-up: species or system HCV genotype 1a. In short, it runs like this:
as §1

Assay [9] deals with HCV NS5B polymerase 1a-H77-C316Y. In words: biochemical. The arrangement: species or system HCV genotype 1a. The settings on record: ratio of enzyme IC50s, 1a H77-C316Y / 1a H77. The gist of the method:
as §1

Assay [10] deals with chimeric replicon with genotype 2b NS5B. In words: microbe, parasite or virus in culture. The class given is cell-based, HCV genotype 2b. The settings on record: Hepatitis C virus, read-out: 2b chimera 5% FBS EC50.
The mark [11] stands for this setting: 5% FBS, absence of human plasma, read-out: Stable Replicon 1a H77 5% FBS EC50.
Setting [12] is: strain 1a H77, 5% FBS + 40% human plasma, read-out: 1a H77 5% FBS + 40% Human Plasma EC50.
The mark [13] stands for this setting: strain 1a H77, 5% FBS, no human plasma, read-out: 1a H77 5% FBS EC50.
The mark [14] stands for this setting: strain 1a H77, 5% FBS, read-out: 1a H77 5% FBS EC50.
The mark [15] stands for this setting: strain 1b BB7, 5% FBS + 40% human plasma, read-out: 1b BB7 5% FBS + 40% Human Plasma EC50.
The mark [16] stands for this setting: strain 1b BB7, 5% FBS, no human plasma, read-out: 1b BB7 5% FBS EC50.
Setting [17] is: strain 1b BB7, 5% FBS, read-out: 1b BB7 5% FBS EC50.

Where two headings read alike, the source gives them in different places.

T1 sequence (P26663 2420-2989): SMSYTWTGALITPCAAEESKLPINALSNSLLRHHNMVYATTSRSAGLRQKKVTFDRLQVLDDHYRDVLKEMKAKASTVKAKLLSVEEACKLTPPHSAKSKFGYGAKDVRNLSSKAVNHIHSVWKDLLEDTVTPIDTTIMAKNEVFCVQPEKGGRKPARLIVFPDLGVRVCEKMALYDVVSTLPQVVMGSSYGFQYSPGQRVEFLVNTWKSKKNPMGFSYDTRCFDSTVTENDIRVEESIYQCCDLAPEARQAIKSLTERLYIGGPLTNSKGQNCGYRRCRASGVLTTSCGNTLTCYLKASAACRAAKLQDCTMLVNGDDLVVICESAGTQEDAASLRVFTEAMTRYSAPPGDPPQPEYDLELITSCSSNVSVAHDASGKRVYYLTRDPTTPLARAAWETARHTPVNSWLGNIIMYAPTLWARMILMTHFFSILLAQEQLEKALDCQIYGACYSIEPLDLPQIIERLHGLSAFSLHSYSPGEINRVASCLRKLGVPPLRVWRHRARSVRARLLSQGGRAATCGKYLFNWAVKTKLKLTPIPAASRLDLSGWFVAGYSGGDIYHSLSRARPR
T2 sequence (P27958 2421-2990 C2736Y): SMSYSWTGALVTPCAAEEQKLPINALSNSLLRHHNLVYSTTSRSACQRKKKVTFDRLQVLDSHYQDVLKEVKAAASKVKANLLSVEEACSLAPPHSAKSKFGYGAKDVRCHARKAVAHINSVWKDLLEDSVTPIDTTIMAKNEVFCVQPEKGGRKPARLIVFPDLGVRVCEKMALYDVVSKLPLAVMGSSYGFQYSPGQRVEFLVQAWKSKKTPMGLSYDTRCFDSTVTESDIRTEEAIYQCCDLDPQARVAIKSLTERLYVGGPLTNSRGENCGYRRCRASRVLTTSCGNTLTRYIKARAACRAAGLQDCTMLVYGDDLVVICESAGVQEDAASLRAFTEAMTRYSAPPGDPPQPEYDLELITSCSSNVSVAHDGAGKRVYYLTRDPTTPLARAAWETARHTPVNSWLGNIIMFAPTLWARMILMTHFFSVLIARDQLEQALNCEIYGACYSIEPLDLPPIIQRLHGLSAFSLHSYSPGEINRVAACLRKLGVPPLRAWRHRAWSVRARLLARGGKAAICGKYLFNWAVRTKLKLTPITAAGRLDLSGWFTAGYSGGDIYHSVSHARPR
T3 sequence (P27958 2421-2990): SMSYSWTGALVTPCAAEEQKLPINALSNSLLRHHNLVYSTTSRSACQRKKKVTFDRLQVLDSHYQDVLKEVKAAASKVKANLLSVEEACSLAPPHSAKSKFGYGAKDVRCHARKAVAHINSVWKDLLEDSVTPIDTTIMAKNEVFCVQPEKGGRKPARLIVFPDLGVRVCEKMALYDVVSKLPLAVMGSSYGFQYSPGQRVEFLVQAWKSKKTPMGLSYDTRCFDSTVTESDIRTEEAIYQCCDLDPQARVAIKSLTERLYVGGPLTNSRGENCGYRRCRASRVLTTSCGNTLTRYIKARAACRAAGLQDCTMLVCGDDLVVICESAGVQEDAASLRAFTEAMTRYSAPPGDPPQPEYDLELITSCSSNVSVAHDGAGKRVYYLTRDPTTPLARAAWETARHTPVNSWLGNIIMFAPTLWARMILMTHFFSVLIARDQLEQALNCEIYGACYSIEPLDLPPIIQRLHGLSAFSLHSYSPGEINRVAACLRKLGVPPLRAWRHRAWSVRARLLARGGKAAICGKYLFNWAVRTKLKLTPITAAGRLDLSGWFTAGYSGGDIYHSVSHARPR

Regarding `CS(=O)(=O)N(CCCn1cccc1)c1cc2oc(-c3ccc(F)cc3)c(C3=NOCCN3)c2cc1C1CC1` [Example 119, N-[5-cyclopropyl-3-(5,6-dihydro-4H-1,2,4-oxadiazin-3-yl)-2-(4-fluorophenyl)-1-benzofuran-6-yl]-N-[3-(1H-pyrrol-1-yl)propyl]methanesulfonamide], the EC50 – broadly, the midpoint of the concentration-response curve – in [1] amounted to 79 nM; in assay [2] (setting [11]) it was 19.4 nM; in assay [2] (setting [12]) it was 247 nM; in assay [2] (setting [13]), 19.4 nM; in assay [2] (setting [14]) it was 19.4 nM; in assay [3] (setting [15]) it was 129 nM. For the same molecule, the EC50 in assay [3] (setting [16]) was determined as 17 nM; in assay [3] (setting [17]) it was 17 nM; in assay [5] it was 142 nM; in assay [6], 30 nM; in assay [10] it was 189 nM. Further, the values for the IC50 in assay [4], in [7] and in assay [8] were 38 nM, 41 nM and 7 nM, respectively. Further, the “C316Y/1a Fold Resistance” value in assay [9] is 6 fold.
For the molecule `CC(=O)CCCCN(c1cc2oc(-c3ccc(F)cc3)c(-c3ncc[nH]3)c2cc1C1CC1)S(C)(=O)=O` [Example 77, N-[5-cyclopropyl-2-(4-fluorophenyl)-3-(1H-imidazol-2-yl)-1-benzofuran-6-yl]-N-(5-oxohexyl)methanesulfonamide], the EC50 in assay [1] was 32.5 nM; in assay [2] (setting [11]) it was 6 nM; in assay [2] (setting [12]) it was 66 nM; in assay [2] (setting [13]) it was 6 nM; in [2] (setting [14]) it was 6 nM; in assay [3] (setting [15]), 47 nM. Besides, the EC50 in assay [3] (setting [16]) turned out to be 5.7 nM; in [3] (setting [17]), 5.7 nM; in assay [5] it was 42.7 nM; in [6], 4.9 nM; in assay [10], 26.8 nM. Moreover, the IC50 (commonly the concentration that inhibits the measured activity by half) stood at 10 nM in assay [4], 49 nM in [7] and 5 nM in [8]. Besides, the “C316Y/1a Fold Resistance” value in assay [9] turned out to be 10 fold.
For `CS(=O)(=O)N(CC1CCOCC1)c1cc2oc(-c3ccc(F)cc3)c(-c3ncc[nH]3)c2cc1C1CC1` [Example 38, N-[5-cyclopropyl-2-(4-fluorophenyl)-3-(1H-imidazol-2-yl)-1-benzofuran-6-yl]-N-(tetrahydro-2H-pyran-4-ylmethyl)methanesulfonamide], the EC50 in assay [1] was 88.2 nM; in [2] (setting [11]), 10.2 nM; in [2] (setting [12]), 117 nM; in assay [2] (setting [13]), 10.2 nM; in assay [2] (setting [14]) it was 10.2 nM; in assay [3] (setting [15]), 245 nM. The EC50 in [3] (setting [16]) was found to be 12.7 nM; in [3] (setting [17]), 12.7 nM; in [5], 161 nM; in assay [6], 25.2 nM; in [10], 81.4 nM. The values for the IC50 in assay [4], in [7] and in [8] were 33 nM, 148 nM and 5 nM, respectively. The “C316Y/1a Fold Resistance” value in [9] came to 30 fold.
Take `CC(=O)CCCN(c1cc2oc(-c3ccc(F)cc3)c(-c3ncc[nH]3)c2cc1C1CC1)S(C)(=O)=O` [Example 73, N-[5-cyclopropyl-2-(4-fluorophenyl)-3-(1H-imidazol-2-yl)-1-benzofuran-6-yl]-N-(4-oxopentyl)methanesulfonamide]: the EC50 in assay [1] amounted to 27 nM; in assay [2] (setting [11]), 7.9 nM; in [2] (setting [12]) it was 72 nM; in [2] (setting [13]), 7.9 nM; in [2] (setting [14]), 7.9 nM; in assay [3] (setting [15]) it was 55 nM. For the same molecule, the EC50 in [3] (setting [16]) worked out at 4.9 nM; in assay [3] (setting [17]) it was 4.9 nM; in assay [5], 42.5 nM; in assay [6] it was 2.9 nM; in [10], 21.9 nM. Further, the IC50 in [4] turned out to be 15 nM; in assay [7] it was 53 nM; in assay [8], 3.5 nM. Moreover, the “C316Y/1a Fold Resistance” value in [9] amounted to 15 fold.
Consider `CS(=O)(=O)N(CCCOc1ccccc1)c1cc2oc(-c3ccc(F)cc3)c(-c3ncc[nH]3)c2cc1C1CC1` [Example 37, N-[5-cyclopropyl-2-(4-fluorophenyl)-3-(1H-imidazol-2-yl)-1-benzofuran-6-yl]-N-(3-phenoxypropyl)methanesulfonamide], for which the EC50 in [1] turned out to be 522 nM; in [2] (setting [11]), 348 nM; in assay [2] (setting [12]), 1390 nM; in assay [2] (setting [13]) it was 348 nM; in assay [2] (setting [14]), 348 nM; in assay [3] (setting [15]), 529 nM. Further, the EC50 stood at 145 nM in assay [3] (setting [16]); 145 nM in assay [3] (setting [17]); 598 nM in [5]; 166 nM in assay [6]; 751 nM in [10]. Besides, the IC50 is 24 nM in assay [4], 144 nM in assay [7] and 5.5 nM in assay [8]. The “C316Y/1a Fold Resistance” value in assay [9] is 26 fold.
For the molecule `CS(=O)(=O)N(CCCC#N)c1cc2oc(-c3ccc(F)cc3)c(C3=NOCCN3)c2cc1C1CC1` [Example 133, N-(3-cyanopropyl)-N-[5-cyclopropyl-3-(5,6-dihydro-4H-1,2,4-oxadiazin-3-yl)-2-(4-fluorophenyl)-1-benzofuran-6-yl]methanesulfonamide], the EC50 in assay [1] is 92 nM; in assay [2] (setting [11]), 6.3 nM; in assay [2] (setting [12]), 37 nM; in assay [2] (setting [13]), 6.3 nM; in [2] (setting [14]), 6.32 nM; in assay [3] (setting [15]) it was 55 nM. For the same molecule, the EC50 in [3] (setting [16]) worked out at 6 nM; in [3] (setting [17]) it was 6 nM; in assay [5], 75 nM; in [6], 11 nM; in assay [10] it was 82 nM. Moreover, the IC50 in assay [4] was found to be 46 nM; in assay [7], 50 nM; in assay [8], 8 nM. Moreover, the “C316Y/1a Fold Resistance” value in assay [9] is on record as 6 fold.
Take `CCCCN(c1cc2oc(-c3ccc(F)cc3)c(-c3ncc[nH]3)c2cc1C1CC1)S(C)(=O)=O` [Example 39, N-butyl-N-[5-cyclopropyl-2-(4-fluorophenyl)-3-(1H-imidazol-2-yl)-1-benzofuran-6-yl]methanesulfonamide]: the EC50 in [1] amounted to 105 nM; in assay [2] (setting [11]), 33.1 nM; in [2] (setting [12]) it was 132 nM; in assay [2] (setting [13]), 33.1 nM; in assay [2] (setting [14]), 33.1 nM; in [3] (setting [15]), 59 nM. The EC50 turned out to be 29.7 nM in assay [3] (setting [16]); 29.7 nM in [3] (setting [17]); 187 nM in assay [5]; 28.4 nM in [6]; 133 nM in assay [10]. The figures for the IC50 in [4], in [7] and in [8] were 17 nM, 78 nM and 5 nM, respectively. In addition, in [9], the “C316Y/1a Fold Resistance” value stood at 16 fold.
Take `CS(=O)(=O)N(CCCc1noc(=O)[nH]1)c1cc2oc(-c3ccc(F)cc3)c(-c3ncc[nH]3)c2cc1C1CC1` [Example 175, N-[5-cyclopropyl-2-(4-fluorophenyl)-3-(1H-imidazol-2-yl)-1-benzofuran-6-yl]-N-[3-(5-oxo-4,5-dihydro-1,2,4-oxadiazol-3-yl)propyl]methanesulfonamide]: the EC50 worked out at 660 nM in assay [1]; 79 nM in assay [2] (setting [11]); 1180 nM in assay [2] (setting [12]); 79 nM in [2] (setting [13]); 79 nM in assay [2] (setting [14]); 570 nM in assay [3] (setting [15]). The EC50 in [3] (setting [16]) amounted to 62 nM; in assay [3] (setting [17]) it was 62 nM; in assay [5] it was 407 nM; in [6] it was 62 nM; in assay [10], 723 nM. For the same molecule, the IC50 came out at 25 nM in assay [4], 43 nM in assay [7] and 6 nM in [8]. Also, the “C316Y/1a Fold Resistance” value in [9] is on record as 7 fold.
